The source of these data is patent EP3295938B1, “USE OF TRIETHYL ORTHOACETATE IN THE TREATMENT OF METAL OVERLOAD DISEASES” (ÜSKÜDAR ÜNIVERSITESI, priority 2016, dated 2018).

Molecules are shown by their SMILES.

The conditions of series [1]: after intravenous infusion; cited from earlier work.
The nature of series [2]: Iron chelation activity (FeSO4/ferrozine, absorbance at 562 nm). It is filed as biochemical. The settings on record: 100, 200 and 400 mM pure triethyl orthoacetate (Fig. 7).
Procedure: Negative controls and methanolicmicroalgae extracts (400 µl) were pipetted into 24 well plate, then 100 µl of 0.25mM FeSO4 solution (dissolved in methanol) was added. For the reaction initiation, 100 µl 5mM ferrozine dissolved in methanol was added. Solution was homogenized by pipetting and incubated for 10 minutes at room temperature. After incubation, it was analysed by using spectrophotometric measurement at 562nm wavelength. In vitro experiments with pure triethyl orthoacetate compound was also conducted with the concentrations of 100, 200 and 400 mM respectively. Same experimental protocol was used for pure triethyl orthoacetate as described in detail above for Spirulina platensis extract.

`CC(=O)N(O)CCCCCNC(=O)CCC(=O)N(O)CCCCCNC(=O)CCC(=O)N(O)CCCCCN` [deferoxamine]: the vascular half-life in series [1] was 5 to 10 min.

Turning to `CCOC(C)(OCC)OCC` [triethyl orthoacetate, Triethyl orthoacetate], the “in vitro iron chelating activity” value in series [2] was above 70%.
